Assays:
[1] = target: T1, human Smo (amino acids 181-787) (Homo sapiens, UniProt Q99835); assay: Smo radioligand competition binding assay (displacement of 3H-PF-03451358 from HEK293 membranes); settings: for inhibition at 0.05 µM: 0.05 μM test compound, displacement of 3H-PF-03451358, read-out: SMO % inh. @ 0.05 μM; for IC50: radioligand competition binding
T1 construct: expressed in transfected cells; membrane preparation
In short: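 Membranes (40 μg protein/well) from HEK293 expressing murine Igk-leader-fused Smo 181-787 incubated 2 h at room temperature with 3 nM 3H-PF-03451358 in Tris pH 7.5/NaCl/MgCl2/EDTA/BSA buffer; filter-bound counts by scintillation. Nonspecific binding with 30 μM cold PF-03451358; IC50 from four-parameter fit of % inhibition.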

Gli-Luc/MEF cells (Smo) = assay: Gli-Luc/MEF assay (Shh-stimulated luciferase reporter under the Gli response element); format: cell-based, mouse; settings: Mus musculus, MEF, 48 h
In short: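 Mouse Gli-Luc/MEF cells dosed with compound (3-fold series, […]) plus 2 μg/mL recombinant mouse Shh, then incubated 48 h at 37° C, 5% CO2. Bright-Glo luminescence read; IC50 calculated from inhibition of Shh-stimulated luciferase.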

T1 sequence (Q99835 181-787): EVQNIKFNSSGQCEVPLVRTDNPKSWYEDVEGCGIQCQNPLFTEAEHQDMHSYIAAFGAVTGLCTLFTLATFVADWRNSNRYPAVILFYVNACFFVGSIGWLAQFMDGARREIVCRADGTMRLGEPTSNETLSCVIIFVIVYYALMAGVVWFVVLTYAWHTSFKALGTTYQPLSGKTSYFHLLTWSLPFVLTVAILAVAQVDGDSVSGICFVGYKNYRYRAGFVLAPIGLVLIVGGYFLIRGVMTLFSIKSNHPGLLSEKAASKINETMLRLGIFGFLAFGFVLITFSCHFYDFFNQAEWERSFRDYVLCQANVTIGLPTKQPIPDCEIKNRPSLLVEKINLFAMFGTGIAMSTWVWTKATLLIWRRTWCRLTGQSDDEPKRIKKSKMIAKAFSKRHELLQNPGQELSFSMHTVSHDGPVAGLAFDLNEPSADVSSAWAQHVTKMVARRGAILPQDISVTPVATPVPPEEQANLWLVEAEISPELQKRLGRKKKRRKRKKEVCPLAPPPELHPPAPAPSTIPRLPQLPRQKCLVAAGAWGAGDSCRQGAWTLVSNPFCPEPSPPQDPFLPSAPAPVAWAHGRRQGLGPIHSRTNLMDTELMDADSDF

| Compound | inhibition at 0.05 µM [1] [%] | IC50 [1] [nM] | IC50 (Gli-Luc/MEF cells (Smo)) [nM] |
| --- | --- | --- | --- |
| Cn1c(-c2cc(N3CCOC(c4nc(C5CC5)no4)C3)ncc2Cl)nc2ccccc21 (centres unmarked) [Example A-76, 2-{5-chloro-2-[2-(3-cyclopropyl-1,2,4-oxadiazol-5-yl)morpholin-4-yl]pyridin-4-yl}-1-methyl-1H-benzimidazole] | 92 | 35 | 18 |
| Cn1c(-c2cc(N3CCNC(=O)C3)ncc2Cl)nc2ccccc21 [Example A-174, 4-[5-chloro-4-(1-methyl-1H-benzimidazol-2-yl)pyridin-2-yl]piperazin-2-one] | 86 | 39 | 39 |
| Cn1c(-c2cc(N3CCC(C)(O)CC3)ncc2Cl)nc2ccccc21 [Example A-30, 1-[5-chloro-4-(1-methyl-1H-benzimidazol-2-yl)pyridin-2-yl]-4-methylpiperidin-4-ol] | 96 | 28 | 11 |
| COC(=O)N(C)C1CN(c2cc(-c3nc4ccccc4n3C)c(Cl)cn2)C1 [Example A-150, methyl {1-[5-chloro-4-(1-methyl-1H-benzimidazol-2-yl)pyridin-2-yl]azetidin-3-yl}methylcarbamate] | 87 | 56 | 23 |
| COCCc1[nH]nc2c1CN(c1cc(-c3nc4ccccc4n3C)c(Cl)cn1)CC2 [Example A-99, 5-[5-chloro-4-(1-methyl-1H-benzimidazol-2-yl)pyridin-2-yl]-3-(2-methoxyethyl)-4,5,6,7-tetrahydro-1H-pyrazolo[4,3-c]pyridine] | 84 | 84 | 28 |
| Cn1c(-c2cc(N3CCN(C(=O)c4ncn[nH]4)CC3)ncc2Cl)nc2ccccc21 [Example A-56, 2-{5-chloro-2-[4-(1H-1,2,4-triazol-3-ylcarbonyl)piperazin-1-yl]pyridin-4-yl}-1-methyl-1H-benzimidazole] | 98 | 21 | 9 |
| CN(CCCO)c1cc(-c2nc3ccccc3n2C)c(Cl)cn1 [Example A-163, 3-{[5-chloro-4-(1-methyl-1H-benzimidazol-2-yl)pyridin-2-yl](methyl)amino}propan-1-ol] | 98 | 17 | 14 |
| Cn1c(-c2cc(N3CC(c4ncccn4)C3)ncc2Cl)nc2ccccc21 [Example A-131, 2-[5-chloro-2-(3-pyrimidin-2-ylazetidin-1-yl)pyridin-4-yl]-1-methyl-1H-benzimidazole] | 52 | – | 161 |
| CCS(=O)(=O)NC1CCN(c2cc(-c3nc4ccccc4n3C)c(F)cn2)CC1 [Example D-9, N-{1-[5-fluoro-4-(1-methyl-1H-benzimidazol-2-yl)pyridin-2-yl]piperidin-4-yl}ethanesulfonamide] | 99 | 5 | 3.9 |
| CC(=O)NC1CCN(c2cc(-c3nc4ccccc4n3C)c(Cl)cn2)CC1 [Example A-22, N-{1-[5-chloro-4-(1-methyl-1H-benzimidazol-2-yl)pyridin-2-yl]piperidin-4-yl}acetamide] | 94 | 11 | 6 |
| CC(=O)N1CCC(N(C)c2cc(-c3nc4ccccc4n3C)c(Cl)cn2)CC1 [Example A-58, N-(1-acetylpiperidin-4-yl)-5-chloro-N-methyl-4-(1-methyl-1H-benzimidazol-2-yl)pyridin-2-amine] | 97 | 15 | 31 |
| Cn1c(-c2cc(N3CCC(NS(C)(=O)=O)C3)ncc2Cl)nc2ccccc21 (centres unmarked) [Example A-153, N-{1-[5-chloro-4-(1-methyl-1H-benzimidazol-2-yl)pyridin-2-yl]pyrrolidin-3-yl}methanesulfonamide] | 93 | 23 | 15 |

Source: US20120157471A1, “BENZIMIDAZOLE DERIVATIVES” (PFIZER INC., priority 2009, published 2012)
